# Results as given in patent US8822449B2, “Substituted aminoindanes and analogs thereof, and the pharmaceutical use thereof” (Sanofi, priority 2008, dated 2014).
# Biological target: T1, sodium-proton exchanger of subtype 3 (NHE3) (Homo sapiens, UniProt P48764)
# T1 construct: expressed in transfected cells
# T1 sequence (P48764 26-834): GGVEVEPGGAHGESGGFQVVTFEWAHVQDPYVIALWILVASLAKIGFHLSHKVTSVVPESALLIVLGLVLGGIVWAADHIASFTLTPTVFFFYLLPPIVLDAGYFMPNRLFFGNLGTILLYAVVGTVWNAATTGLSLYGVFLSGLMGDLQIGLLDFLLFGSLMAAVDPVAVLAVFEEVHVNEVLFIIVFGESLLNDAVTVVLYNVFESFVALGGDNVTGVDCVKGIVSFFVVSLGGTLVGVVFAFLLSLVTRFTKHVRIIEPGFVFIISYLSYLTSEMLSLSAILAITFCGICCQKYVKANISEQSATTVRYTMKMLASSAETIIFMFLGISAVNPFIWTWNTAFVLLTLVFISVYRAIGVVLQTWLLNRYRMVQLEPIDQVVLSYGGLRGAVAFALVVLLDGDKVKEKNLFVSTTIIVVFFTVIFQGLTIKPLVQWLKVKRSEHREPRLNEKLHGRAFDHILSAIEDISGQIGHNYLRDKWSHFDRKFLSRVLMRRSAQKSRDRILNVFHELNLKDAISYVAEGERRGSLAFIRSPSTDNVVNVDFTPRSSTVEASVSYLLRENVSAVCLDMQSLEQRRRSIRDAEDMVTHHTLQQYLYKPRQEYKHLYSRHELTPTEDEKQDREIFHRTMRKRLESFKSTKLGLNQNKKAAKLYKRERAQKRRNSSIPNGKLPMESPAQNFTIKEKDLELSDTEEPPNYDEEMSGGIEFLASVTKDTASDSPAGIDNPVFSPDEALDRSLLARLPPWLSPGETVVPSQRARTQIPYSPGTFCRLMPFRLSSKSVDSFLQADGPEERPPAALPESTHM
# Test: Recovery of intracellular pH (pHi) after acidification in LAP1 cells stably expressing NHE3 (BCECF fluorescence, FLIPR)
# Assay type: cell-based
# Details: LAP1 cells stably expressing NHE3; pH recovery after acidification; range 1 is % inhibition at 10 μM; read-out: Activity range (inhibitory effect on NHE3)
IC50,inhibition at 10 µM,Structure (SMILES)
< 1000 nM,,"Cc1nnc(C)n1-c1ccc(O[C@H]2c3cc(Cl)cc(Cl)c3C[C@@H]2N2CC[C@H](O)C2)cc1 [Example 206, (S)-1-{trans-(1S,2S)-4,6-dichloro-1-[4-(3,5-dimethyl-[1,2,4]triazol-4-yl)phenoxy]indan-2-yl}pyrrolidin-3-ol]"
< 1000 nM,,"C[C@@H]1CN([C@H]2Cc3c(Cl)cc(Cl)cc3[C@@H]2Oc2ccc(S(C)(=O)=O)cc2)C[C@H](C)N1 [Example 21, (3R,5S)-1-[trans-(1S,2S)-4,6-dichloro-1-(4-methanesulfonylphenoxy)indan-2-yl]-3,5-dimethylpiperazine]"
1000 to 10000 nM,,"CC(=O)Nc1cccc(O[C@H]2c3cccc(C)c3C[C@@H]2N2CCCC2)c1 (racemic) [Example 653, N-[3-(rac-trans-(1,2)-4-methyl-2-pyrrolidin-1-ylindan-1-yloxy)phenyl]acetamide]"
1000 to 10000 nM,,"CS(=O)(=O)Nc1ccc(C(=O)O[C@H]2c3ccccc3C[C@@H]2N2CCCC2)c(Cl)c1 [Example 394, 2-chloro-4-methanesulfonylaminobenzoic acid (1S,2S)-2-pyrrolidin-1-ylindan-1-yl ester]"
< 1000 nM,,"Clc1cc(Cl)c2c(c1)[C@H](Oc1ccc(-n3cncn3)cc1)[C@@H](N1CCNCC1)C2 (racemic) [Example 276, 1-[rac-trans-(1,2)-4,6-dichloro-1-(4-[1,2,4]triazol-1-ylphenoxy)indan-2-yl]piperazine]"
< 1000 nM,,"CC(=O)Nc1cccc(O[C@H]2c3cc(F)cc(Cl)c3C[C@@H]2N2CCNCC2)c1 (racemic) [Example 650, N-[3-(rac-trans-(1,2)-4-chloro-6-fluoro-2-piperazin-1-ylindan-1-yloxy)phenyl]acetamide]"
1000 to 10000 nM,,"Cc1cc(O[C@H]2c3cc(Cl)cc(F)c3C[C@@H]2N2CCCC2)ccc1S(C)(=O)=O (racemic) [Example 291, 1-[rac-trans-(1,2)-6-chloro-4-fluoro-1-(4-methanesulfonyl-3-methylphenoxy)indan-2-yl]pyrrolidine]"
< 1000 nM,,"O=c1[nH]ccn1-c1ccc(O[C@H]2c3cc(Cl)cc(Cl)c3C[C@@H]2N2CC[C@@H](O)C2)cc1 [Example 325, 1-{4-[(1S,2S)-4,6-dichloro-2-((R)-3-hydroxypyrrolidin-1-yl)indan-1-yloxy]phenyl}-1,3-dihydroimidazol-2-one]"
1000 to 10000 nM,,"C[C@]1(O)CCN([C@H]2Cc3c(Cl)cc(Cl)cc3[C@@H]2Oc2ccc(S(C)(=O)=O)cc2)C1 (racemic) [Example 146, (S)-1-[(1S,2S)-4,6-dichloro-1-(4-methanesulfonylphenoxy)indan-2-yl]-3-methylpyrrolidin-3-ol]"
< 1000 nM,,"CN1CCN(c2ccc(Cl)c(O[C@H]3c4cc(Cl)cc(F)c4C[C@@H]3N3CC[C@@H](O)C3)c2)C1=O [Example 340, 1-{4-chloro-3-[(1S,2S)-6-chloro-4-fluoro-2-((R)-3-hydroxypyrrolidin-1-yl)indan-1-yloxy]phenyl}-3-methylimidazolidin-2-one]"
,20 to 50%,"Fc1ccc(O[C@H]2c3cc(Cl)cc(Cl)c3C[C@@H]2N2CCC2)c2ncccc12 [Example 591, 8-((1S,2S)-2-azetidin-1-yl-4,6-dichloroindan-1-yloxy)-5-fluoroquinoline]"
< 1000 nM,,"C[C@H]1CN([C@H]2Cc3c(Cl)cc(Cl)cc3[C@@H]2Oc2ccc(S(C)(=O)=O)cc2)CCN1 [Example 197, (S)-1-[trans-(1S,2S)-4,6-dichloro-1-(4-methanesulfonylphenoxy)indan-2-yl]-3-methylpiperazine]"
1000 to 10000 nM,,"N#Cc1ccc(O[C@H]2c3cc(Cl)cc(Cl)c3C[C@@H]2N2CC[C@H](O)C2)c(F)c1 [Example 555, 4-[trans-(1S,2S)-4,6-dichloro-2-((S)-3-hydroxypyrrolidin-1-yl)indan-1-yloxy]-3-fluorobenzonitrile]"

# Continued, compound first:
Structure (SMILES),IC50,inhibition at 10 µM
"c1ccc2c(c1)CC[C@H](N1CCOCC1)[C@H]2Oc1cnc2ccccc2c1 (racemic) [Example 400, 3-(rac-trans-(1,2)-2-morpholin-4-yl-1,2,3,4-tetrahydronaphthalen-1-yloxy)quinoline]",,20 to 50%
"Cc1nn(C)c(C)c1-c1ccc(O[C@H]2c3cc(Cl)ccc3C[C@@H]2N2CC[C@@H](O)C2)cc1 [Example 140, (R)-1-{trans-(1S,2S)-6-chloro-1-[4-(1,3,5-trimethyl-1H-pyrazol-4-yl)phenoxy]indan-2-yl}pyrrolidin-3-ol]",1000 to 10000 nM,
"Cc1ccc(O[C@@H]2c3ccccc3C[C@H]2N2CCC(CN)CC2)c(Br)c1 (racemic) [Example 603, C-{1-[rac-trans-(1,2)-1-(2-bromo-4-methylphenoxy)indan-2-yl]piperidin-4-yl}methylamine]",1000 to 10000 nM,
"COc1cccc(F)c1O[C@@H]1c2ccccc2C[C@H]1N1CCC(CN)C1 (mixture of isomers) [Example 605, C-{1-[rac-trans-(1,2)-1-(2-fluoro-6-methoxyphenoxy)indan-2-yl]pyrrolidin-3-yl}methylamine]",1000 to 10000 nM,
"CC(=O)Nc1cccc(O[C@H]2c3ccccc3C[C@@H]2N2CCC[C@@H](NCCF)C2)c1 [Example 631, N-(3-{trans-(1S,2S)-2-[(R)-3-(2-fluoroethylamino)piperidin-1-yl]indan-1-yloxy}phenyl)-acetamide]",< 1000 nM,
"CC(=O)Nc1cccc(O[C@H]2c3ccccc3C[C@@H]2N2CCC[C@@H](N(C)C)C2)c1 [Example 692, N-{3-[trans-(1S,2S)-2-((R)-3-dimethylaminopiperidin-1-yl)indan-1-yloxy]phenyl}acetamide]",< 1000 nM,
"N[C@H]1CCCN([C@H]2CCc3ccccc3[C@@H]2Oc2ccc(-n3ccnc3)cc2)C1 (racemic) [Example 180, (S)-1-[rac-trans-(1,2)-1-(4-imidazol-1-ylphenoxy)-1,2,3,4-tetrahydronaphthalen-2-yl]piperidin-3-ylamine]",,20 to 50%
"NC1CCN([C@@H]2Cc3ccccc3[C@H]2Oc2cccc(N3CCNCC3)c2)C1 (mixture of isomers) [Example 270, 1-[rac-trans-(1,2)-1-(3-piperazin-1-ylphenoxy)indan-2-yl]pyrrolidin-3-ylamine]",1000 to 10000 nM,
"NC(=O)c1ccc(O[C@@H]2c3ccccc3C[C@H]2N2CCC[C@H](N)C2)cc1 (racemic) [Example 537, 4-[rac-trans-(1,2)-2-((S)-3-aminopiperidin-1-yl)indan-1-yloxy]benzamide]",1000 to 10000 nM,
"NC(=O)c1ccc(O[C@@H]2c3ccccc3C[C@H]2N2CCC[C@@H](N)C2)cc1 (racemic) [Example 524, 4-[rac-trans-(1,2)-2-((R)-3-aminopiperidin-1-yl)indan-1-yloxy]benzamide]",< 1000 nM,
"Cc1ccc(O[C@@H]2c3ccccc3C[C@H]2N2C[C@H]3CNC[C@H]3C2)c(Br)c1 (racemic) [Example 10, 2-[rac-trans-(1,2)-1-(2-bromo-4-methylphenoxy)indan-2-yl]octahydropyrrolo[3,4-c]pyrrole]",1000 to 10000 nM,
"N#Cc1cc(Cl)ccc1O[C@@H]1c2ccccc2C[C@H]1N1CCC(N)C1 (mixture of isomers) [Example 375, 2-[rac-trans-(1,2)-2-(3-aminopyrrolidin-1-yl)indan-1-yloxy]-5-chlorobenzonitrile]",1000 to 10000 nM,
"Cc1nnc(C)n1-c1ccc(O[C@H]2c3cc(Cl)cc(Cl)c3C[C@@H]2N(C)CCO)c(F)c1 [Example 704, 2-({trans-(1S,2S)-4,6-Dichloro-1-[4-(3,5-dimethyl-[1,2,4]triazol-4-yl)-2-fluoro-phenoxy]-indan-2-yl}-methyl-amino)-ethanol]",< 1000 nM,
